Test results as given in patent US20260144740A1, “COSMETIC ACTIVE INGREDIENT DERIVED FROM A NON-VOLATILE FRACTION OF CANARIUM EXUDATE AND USES THEREOF” (FLORE SCOLA, priority 2022, published 2026).

Key:
interleukin 6 (IL-6) = test: Anti-inflammatory effect: IL-6 release by keratinocytes stimulated by UV (ELISA, related to protein level); format: cell-based, human; details: positive control
Method: This test consists of evaluating the production of inflammatory mediators by human keratinocytes in response to irritant stress. The method is based on measuring the release rate of interleukin 6 (IL-6) by keratinocytes cultured in the presence of the ingredient and stimulated by UV light.
Five solutions are tested. Each is obtained by dilution in a culture medium and obtaining a final concentration of 1% ethanol. […] The second, third and fourth solutions differ in the concentration of the final residue (respectively 1.4 μg/mL, 3.5 μg/mL and 7.0 μg/mL). The fifth solution is dexamethasone (Dexa) (SIGMA Ref D1756) which is tested at 100 µM as a positive control.
On D0, 48 hours after seeding, the cells are rinsed with phosphate-buffered saline (PBS) and then exposed to UVB through the PBS. Immediately after irradiation, the PBS is replaced by the DMEM (Dulbecco's Modified Eagle Medium) test medium comprising the solution to be tested. The cells are returned to 37° C. and incubated for 24 hours.
On D1 (T 24 h), the incubation media are collected and the level of IL-6 is measured using the ELISA assay kit (IL-6 HIGH SENSITIVITY ELISA KIT, ENZO). At the same time, the corresponding cell layers are rinsed with Hank's Balanced Salt Solution (HBSS) and processed for cellular protein assay. A NaOH solution is added to each sample. After incubation, the cell extracts are collected and frozen at −20° C. to await assay with the BCA Protein Assay kit (PIERCE®).
The crude levels of IL-6 (pg per sample) are deduced by interpolation from the standard curve established with the IL-6 standard in the kit. The average of the IL-6 levels is calculated for each sample.
The protein level (μg per sample) is deduced by interpolation from the standard curve established with a bovine serum albumin standard in order to express the IL-6 level in relation to the average protein level. The average level is calculated for each sample.
The average IL-6 level is related to the average protein level. […]

PCi-SEB human sebocytes = test: Anti-sebum effect: intracellular neutral lipids (Nile Red test) in sebocytes, lipogenesis induced by linoleic acid; format: cell-based; details: positive control
Method: The aim of this test is to study the anti-sebum effect of the ingredient according to the invention using an in vitro cell model. An extract is prepared according to Example 2.
The procedure is as follows. PCi-SEB human sebocytes derived from induced pluripotent stem (iPS) cells are prepared. The amplification and the maturation of PCi-SEB sebocytes is achieved by incubation in SEB medium for amplification for 2 days then in supplemented SEB medium for maturation for 3 days. The sebocytes are incubated for 24 hours in the presence of the ingredient according to the invention. Lipogenesis is induced by the addition of linoleic acid, then the sebocytes are incubated for 48 hours in the presence of the ingredient according to the invention.
In order to verify efficacy, the following biomarkers are measured: namely, intracellular neutral lipids (Nile Red test) and cellular proteins (Pierce BCA test).
The experimental plan is as follows: • 1 batch (Control): untreated cells incubated in SEB medium (n=3) • 1 batch (EtOH control): untreated cells incubated in SEB medium+EtOH (0.125%)] (n=3) • 3 batches (Test element-treated): cells incubated in medium (SEB+EtOH (0.125%)) and treated with 3 concentrations of test element (n=3) • 1 batch [PC]: cells incubated in SEB medium and treated with TOFA (20 μM)
The ingredient according to the invention was tested at 3 concentrations: C1=5 μg/mL, C2=15 μg/mL and C3=30 μg/mL
The level of neutral lipids was measured in control sebocyte cultures then treated by staining the cells with Nile Red. The values (fluorescence intensity) were reported at the average cellular protein level.
The [Nile-Red] values are expressed in arbitrary units (fluorescence intensity (urf) per mg of cellular protein).

For `C[C@@H]1C[C@H]2[C@@H]3CCC4=CC(=O)C=C[C@]4(C)[C@@]3(F)[C@@H](O)C[C@]2(C)[C@@]1(O)C(=O)CO` [Dexa, dexamethasone], the “Induced IL-6” value (interleukin 6 (IL-6); 100 μM, 24 h after UVB) was 105.10 pg/mg prot, the “Induced IL-6 (%), with respect to IL-6 induced in the ethanol control” value (interleukin 6 (IL-6); 100 μM, 24 h after UVB) was 8% and the “inhibition of UV-induced IL-6 release” value (interleukin 6 (IL-6); same experimental conditions) was 92%.
With `CCCCCCCCCCCCCCOc1ccc(C(=O)O)o1` [TOFA, 5-(tetradecyloxy)-2-furoic acid] the “Neutral lipids - Nile Red, Mean, per mg of cellular protein” value (PCi-SEB human sebocytes; 20 μM) was 7.01 URF/mg prot, the “Nile Red Test, Mean (fluorescence intensity)” value (PCi-SEB human sebocytes; 20 μM) was 1679 and the “Lipogenic effect (%)” value (PCi-SEB human sebocytes; 20 μM, vs. EtOH control) was −75%. The activity at 20 µM (PCi-SEB human sebocytes; Homo sapiens, read-out: Neutral lipids (% of controlEtOH)) was 25%.
